Values quoted from earlier work, collected in PubChem BioAssay AID1259409 (Chemical Carcinogenesis Research Information System (CCRIS), 2018).

System: rodent chemically induced tumor inhibition, incidence and multiplicity
Test: CCRIS tumor inhibitor studies
Settings: Carcinogen: N-NITROBIS(2-OXOPROPYL)AMINE, 60559-38-4, Dose [Inhibitor]: 0.5 OR 1.0 MMOL/KG DIET DAILY STARTING 1 WK AFTER CARCINOGEN TREATMENT AND CONTINUING THROUGH THE END OF THE STUDY (STUD, Route [Inhibitor]: ORAL, Species: HAMSTER, Promoter: NONE USED

CC1=C(/C=C/C(C)=C/C=C/C(C)=C/C(=O)NCCO)C(C)(C)CCC1
tumour outcome (control, treated, inhibition, significance) (Strain/Sex: SYRIAN/FEMALE, Target Tissue: Type of Lesion: LIVER: BENIGN TUMOR, Dose [Carcinogen]: 40 MG/KG BW ONCE): 4/20 (20%), 17/35 (49%), -145%, not significant
tumour outcome (control, treated, inhibition, significance) (Strain/Sex: SYRIAN/FEMALE, Target Tissue: Type of Lesion: ND: TOTAL TUMOR, Dose [Carcinogen]: 10 MG/KG BW ONCE): 13/23 (56%), 21/37 (57%), -2%, not significant
tumour outcome (control, treated, inhibition, significance) (Strain/Sex: SYRIAN/FEMALE, Target Tissue: Type of Lesion: ND: TOTAL TUMOR, Dose [Carcinogen]: 40 MG/KG BW ONCE): 17/20 (85%), 33/34 (97%), -14%, not significant
tumour outcome (control, treated, inhibition, significance) (Strain/Sex: SYRIAN/FEMALE, Target Tissue: Type of Lesion: PANCREAS: DUCTULAR ADENOMA, Dose [Carcinogen]: 10 MG/KG BW ONCE): 5/23 (23%), 10/37 (27%), -17%, not significant
tumour outcome (control, treated, inhibition, significance) (Strain/Sex: SYRIAN/FEMALE, Target Tissue: Type of Lesion: PANCREAS: DUCTULAR ADENOMA, Dose [Carcinogen]: 40 MG/KG BW ONCE): 12/20 (60%), 27/33 (82%), -37%, not significant
tumour outcome (control, treated, inhibition, significance) (Strain/Sex: SYRIAN/FEMALE, Target Tissue: Type of Lesion: PANCREAS: DUCTULAR CARCINOMA, Dose [Carcinogen]: 40 MG/KG BW ONCE): 6/20 (30%), 8/33 (24%), 20%, not significant
tumour outcome (control, treated, inhibition, significance) (Strain/Sex: SYRIAN/MALE, Target Tissue: Type of Lesion: LIVER: BENIGN TUMOR, Dose [Carcinogen]: 40 MG/KG BW ONCE): 5/24 (21%), 26/42 (62%), -195%, p<0.05
tumour outcome (control, treated, inhibition, significance) (Strain/Sex: SYRIAN/MALE, Target Tissue: Type of Lesion: ND: TOTAL TUMOR, Dose [Carcinogen]: 10 MG/KG BW ONCE): 12/20 (54%), 31/39 (79%), -46%, not significant
tumour outcome (control, treated, inhibition, significance) (Strain/Sex: SYRIAN/MALE, Target Tissue: Type of Lesion: ND: TOTAL TUMOR, Dose [Carcinogen]: 40 MG/KG BW ONCE): 20/24 (83%), 41/42 (98%), -18%, not significant
tumour outcome (control, treated, inhibition, significance) (Strain/Sex: SYRIAN/MALE, Target Tissue: Type of Lesion: PANCREAS: DUCTULAR ADENOMA, Dose [Carcinogen]: 10 MG/KG BW ONCE): 3/22 (14%), 16/37 (43%), -207%, not significant
tumour outcome (control, treated, inhibition, significance) (Strain/Sex: SYRIAN/MALE, Target Tissue: Type of Lesion: PANCREAS: DUCTULAR ADENOMA, Dose [Carcinogen]: 40 MG/KG BW ONCE): 8/24 (33%), 34/42 (81%), -145%, not significant
